Results on one molecule are retold here after patent EP1283052A1, “Pharmaceutical composition containing caspase-8 and /or caspase-9 useful for overcoming glucocorticoid- and cancer therapy-induced apoptosis of tumours” (Deutsches Krebsforschungszentrum Stiftung des öffentlichen …, priority 2001, dated 2003).

Common to all, as to type: cell-based, human
In one test the test system is caspase-3. The test is described as follows: Fluorometric caspase-3 activity assay in CEM leukemic T cells. The note with it: cisplatin 2 µg/ml alone, Fig. 1c. As to the method: • (a) Human epidermoid lung cancer cells (P693) were injected into nude mice. At a tumour volume of 500 mm^3 weekly treatment with cisplatin (5mg/kg/week) was started. Cisplatin was injected intraperitoneally in the absence (CIS) or presence (DEX/CIS) of DEX which was added to the drinking water (0.28 mg/L) for the duration of the experiment. […] As controls, tumor growth of xenografts from mice which received neither cisplatin nor DEX (CO) or from mice which received DEX only (DEX) was determined. The tumour volume in each animal was measured at weekly intervals for a period of 5 weeks. Data are presented as the means +/- SD of 6 to 8 animals. • (b) The human cervical carcinoma cell lines HeLa and P5 were γ-irradiated (10 Gy) or treated with cisplatin (2 µg/ml) in the absence (white bars) or presence (black bars) of DEX (1 µM). The percentage of apoptosis was measured in untreated (CO) and stimulated cells by annexin-staining and FACS-analysis at the time points indicated. (c) P5, P693 and human leukemic T cells (CEM) cells were treated with cisplatin (2 µg/ml) in the absence or presence of DEX as indicated. 24 and 48 h following treatment cells were lysed and caspase-3 activity was determined by a fluorescent caspase-3 assay and spectroscopy.

For another test, the system named is CD95-L, TRAIL and TNF-α. The test can be described thus: Western blot of death ligand expression in P5 and CEM cells. The note with it: cisplatin alone (1-5 µg/ml), both cell types; Fig. 2a. As to the method: (§1) • (a) Left: P5 an CEM cells were treated with cisplatin (1-5 µg/ml) in the absence or presence of DEX (1 µM) as indicated. Proteins were extracted and expression of CD95-L, TRAIL or TNF-α was detected by Western blot analysis. The size of the proteins in kDa is indicated. Right: HeLa and P5 were treated with CD95 agonistic antibody αAPO-1 (CD95, 1 µg/ml), recombinant TRAIL protein (TRAIL, 100 ng/ml) or recombinant TNF-α protein (TNF-α, 100 ng/ml) in the absence (white bars) or presence (black bars) of DEX (1 µM). 24 h later the percentage of apoptosis was determined by annexin-staining and FACS-analysis in untreated (CO) and stimulated cells at the time points indicated. • (b) P693 and CEM cells were treated with cisplatin (2 µg/ml) in the absence or presence of DEX as indicated. 24 and 48 h following treatment cells were lysed and caspase-8 activity was determined by a fluorescent caspase-8 assay and spectroscopy. • (c) P5 cells were stable transfected with empty vector (pcDNA3), or pcDNA3 vector encoding dominant negative FADD protein (FADD-DN). Proteins were extracted from both cell lines and expression of wildtype (WT) and FADD-DN (DN) was detected by Western blot. Left: Stable transfected P5 cells were treated with αAPO-1 (1 µg/ml) and 24 h later apoptosis was determined by staining with annexin/propidium iodide and flow-cytometry. […]
For orientation: A western blot detects proteins with antibodies after separation by electrophoresis.

A further test has as its system P5 cells. The test can be described thus: Specific apoptosis in P5 cells stably transfected with pcDNA3 or FADD-DN. The note with it: 48 h, cisplatin 2 µg/ml; Fig. 2c right. As to the method: as §1
In test [1] the test system is caspase-8. The test can be described thus: Fluorometric caspase-8 activity assay in P693 cells. The note with it: cisplatin 2 µg/ml alone, Fig. 2b. As for the experimental part: as §1
For test [2], the system named is caspase-8. The test is described as follows: Fluorometric caspase-8 activity assay in CEM cells. The note with it: cisplatin 2 µg/ml alone, Fig. 2b. As for the experimental part:
as §1

For `N.N.[Cl][Pt][Cl]` [cisplatin], in the test on caspase-3, the caspase-3 activity result is reported as “responded earlier at 24 h with increased activity at 48 h”. Also, the “expression of DILs such as CD95-L, TRAIL and TNF-α” value with CD95-L, TRAIL and TNF-α is given as “enhanced expression”. Besides, in the test on P5 cells, the cisplatin-induced apoptosis entry is “about 80%”. In addition, the “activity of caspase-8” value was “induced 48 h following treatment” in the test with caspase-8 [1] and “responded earlier at 24 h with increased activity at 48 h” in the test on caspase-8 [2].
